Among the data in patent publication US11384055B2 (BIOMARIN PHARMACEUTICAL INC., priority 2017, dated 2022) are IC50 values, retold here.

This assay concerns the target T1, Human GO (Homo sapiens, UniProt Q9UJM8).
T1 construct: purchased Novus Biologicals NBP1-72412
T1 sequence (Q9UJM8 1-370): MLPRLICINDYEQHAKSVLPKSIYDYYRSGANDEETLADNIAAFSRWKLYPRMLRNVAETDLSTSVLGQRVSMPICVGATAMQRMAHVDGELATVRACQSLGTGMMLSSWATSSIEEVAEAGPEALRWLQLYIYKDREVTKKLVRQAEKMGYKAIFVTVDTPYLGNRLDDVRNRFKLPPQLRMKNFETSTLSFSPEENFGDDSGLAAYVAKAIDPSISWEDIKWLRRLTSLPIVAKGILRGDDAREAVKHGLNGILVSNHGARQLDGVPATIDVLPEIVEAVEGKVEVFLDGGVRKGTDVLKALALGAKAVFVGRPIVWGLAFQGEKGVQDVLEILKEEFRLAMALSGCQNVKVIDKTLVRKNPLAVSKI
Briefly: GO enzymatic assay (coupled fluorescence/HRP assay, glycolate substrate). It is filed as biochemical. To be noted: read-out: Range (range of IC50 values calculated from the enzymatic assays). An outline of the steps: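 Human GO incubated with glycolate substrate in 50 mM potassium phosphate, pH 7, with varying inhibitor concentrations. Activity read by coupled HRP fluorescence. IC50 taken from variable-slope sigmoidal dose-response fits of percent inhibition relative to DMSO control.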

Where two headings read alike, the source gives them in different places.

Turning to `CC(=O)OCOC(=O)c1[nH]nnc1Oc1ccc2cc(Br)ccc2c1` [Compound 105, acetoxymethyl 4-((6-bromonaphthalen-2-yl)oxy)-1H-1,2,3-triazole-5-carboxylate], the IC50 (Table 1) was 1 to 10 µM. As for `O=C(O)c1[nH]nnc1Oc1ccc2cc(Cl)ccc2c1` [Compound 106, 4-((6-chloronaphthalen-2-yl)oxy)-1H-1,2,3-triazole-5-carboxylic acid 2,2,2-trifluoroacetate], the IC50 (Table 1) was below 0.1 µM.

As to `CC(C)(C)C(=O)OCOC(=O)c1[nH]nnc1Oc1ccc(Cl)c(Cl)c1` [Compound 107, (pivaloyloxy)methyl 4-(3,4-dichlorophenoxy)-1H-1,2,3-triazole-5-carboxylate], the 50% inhibitory concentration (IC50) (Table 1) is 1 to 10 µM.

Consider `CC(C)C(=O)OCOC(=O)c1[nH]nnc1Oc1ccc(Cl)c(Cl)c1` [Compound 108, (isobutyryloxy)methyl 4-(3,4-dichlorophenoxy)-1H-1,2,3-triazole-5-carboxylate], for which the half-maximal inhibitory concentration (IC50) (Table 1) is 0.1 to 1 µM.

Consider `CC(=O)OCOC(=O)c1[nH]nnc1Oc1ccc(Cl)c(Cl)c1` [Compound 109, acetoxymethyl 4-(3,4-dichlorophenoxy)-1H-1,2,3-triazole-5-carboxylate], for which, for the setting “Table 1”, the IC50 is below 0.1 µM. Still for that read-out and setting: the same measure for `O=C(O)c1[nH]nnc1OC1CCc2cc(Cl)c(Cl)cc2C1` (stereo not shown) [Compound 111, 4-((6,7-dichloro-1,2,3,4-tetrahydronaphthalen-2-yl)oxy)-1H-1,2,3-triazole-5-carboxylic acid 2,2,2-trifluoroacetate]: below 0.1 µM.

For the compound `O=C(O)c1[nH]nnc1O[C@@H]1CCc2cc(Cl)c(Cl)cc2C1` [Compound 111-1, (R)-4-((6,7-dichloro-1,2,3,4-tetrahydronaphthalen-2-yl)oxy)-1H-1,2,3-triazole-5-carboxylic acid], the half-maximal inhibitory concentration (IC50) (Table 6, GO enzymatic assay) was below 0.1 µM. Same read-out and setting: the same measure for `O=C(O)c1[nH]nnc1O[C@H]1CCc2cc(Cl)c(Cl)cc2C1` [Compound 111-2, (S)-4-((6,7-dichloro-1,2,3,4-tetrahydronaphthalen-2-yl)oxy)-1H-1,2,3-triazole-5-carboxylic acid]: below 0.1 µM. Turning to `O=C(OC1CC1)c1[nH]nnc1Oc1ccc(Cl)c(Cl)c1` [Compound 112, cyclopropyl 4-(3,4-dichlorophenoxy)-1H-1,2,3-triazole-5-carboxylate], under “Table 1”, the 50% inhibitory concentration (IC50) is above 10 µM.

On to `O=C(O)c1[nH]nnc1Oc1ccc2cccnc2c1` [Compound 113, 4-(quinolin-7-yloxy)-1H-1,2,3-triazole-5-carboxylic acid 2,2,2-trifluoroacetate], for which the IC50 (Table 1) is below 0.1 µM. Same read-out and setting: the same measure for `O=C(O)c1[nH]nnc1Oc1cccc(OC(F)(F)F)c1` [Compound 114, 4-(3-(trifluoromethoxy)phenoxy)-1H-1,2,3-triazole-5-carboxylic acid]: below 0.1 µM; for `O=C(O)c1[nH]nnc1Oc1cnc2ccccc2c1` [Compound 115, 4-(quinolin-3-yloxy)-1H-1,2,3-triazole-5-carboxylic acid 2,2,2-trifluoroacetate]: 0.1 to 1 µM.

On to `O=C(OC1CC1)c1[nH]nnc1Oc1ccc2c(c1)CCCC2` [Compound 116, cyclopropyl 4-((5,6,7,8-tetrahydronaphthalen-2-yl)oxy)-1H-1,2,3-triazole-5-carboxylate], for which, under “Table 1”, the half-inhibitory concentration (IC50) is above 10 µM. On the same count and under the same terms, the same measure for `O=C(O)c1[nH]nnc1OC1CCc2ccccc2C1` (stereo not shown) [Compound 117, 4-((1,2,3,4-tetrahydronaphthalen-2-yl)oxy)-1H-1,2,3-triazole-5-carboxylic acid 2,2,2-trifluoroacetate]: below 0.1 µM. Still for that read-out and setting: the same measure for `O=C(O)c1[nH]nnc1Oc1ccc2ccncc2c1` [Compound 118, 4-(isoquinolin-7-yloxy)-1H-1,2,3-triazole-5-carboxylic acid 2,2,2-trifluoroacetate]: below 0.1 µM; for `O=C(O)c1[nH]nnc1Oc1ccc(-c2ccc(OC(F)(F)F)cc2)c(Cl)c1` [Compound 119, 4-((2-chloro-4′-(trifluoromethoxy)-[1,1′-biphenyl]-4-yl)oxy)-1H-1,2,3-triazole-5-carboxylic acid]: below 0.1 µM.
